Source: US11655216B2 (priority 2016, dated 2023)
Like-named read-outs stand apart in the source and are kept apart here.

Columns and labels:
[1] = biological target: T1, glutathione-S-transferase (GST) tagged LXRbeta LBD (ligand binding domain) (Homo sapiens, UniProt P55055); experiment: LanthaScreen TR-FRET Liver X Receptor Coactivator Assay, LXR beta; assay type: biochemical; details: for EC50: potency (Inflection Point), compound-induced co-activator recruitment, TR-FRET; for Emax: read-out: LXR beta actiivty at max dose, efficacy (% Emax) in relation to reference dual agonist T0901317
T1 construct: purchased Invitrogen pv4658
T1 sequence (P55055 222-460 limits assumed): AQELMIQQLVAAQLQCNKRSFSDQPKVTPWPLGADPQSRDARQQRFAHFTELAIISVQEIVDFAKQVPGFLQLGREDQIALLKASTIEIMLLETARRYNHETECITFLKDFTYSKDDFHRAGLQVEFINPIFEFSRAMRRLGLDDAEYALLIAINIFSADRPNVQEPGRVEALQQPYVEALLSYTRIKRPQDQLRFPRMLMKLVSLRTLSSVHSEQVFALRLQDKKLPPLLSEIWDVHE
Experimental: (§1) While running the LanthaScreen™ TR-FRET Liver X Receptor Coactivator Assay, LXR alpha-LBD or LXR beta-LBD was added to ligand test compounds followed by addition of a mixture of a fluorescein-labelled coactivator peptide and terbium-conjugated anti-GST antibody. After an incubation period at room temperature, TR-FRET (time-resolved fluorescence resonance energy transfer) was measured using a filter-based instrument capable of TR-FRET, e.g. PerkinElmer Envision.

[2] = biological target: T2, glutathione-S-transferase (GST) tagged LXRalpha LBD (ligand binding domain) (Homo sapiens, UniProt Q13133); experiment: biochemical
T2 construct: purchased Invitrogen pv4655
T2 sequence (Q13133 209-447 limits assumed): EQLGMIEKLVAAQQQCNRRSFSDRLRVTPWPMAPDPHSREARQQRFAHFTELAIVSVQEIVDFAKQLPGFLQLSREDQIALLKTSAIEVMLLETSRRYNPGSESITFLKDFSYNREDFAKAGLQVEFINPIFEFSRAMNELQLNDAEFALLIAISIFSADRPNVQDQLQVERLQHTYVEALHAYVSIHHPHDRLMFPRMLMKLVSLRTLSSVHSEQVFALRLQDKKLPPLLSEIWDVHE
Experimental: as §1

[3] = potency (Inflection Point), compound-induced co-activator recruitment, TR-FRET
[4] = read-out: LXR alpha actiivty at max dose, efficacy (% Emax) in relation to reference dual agonist T0901317
[5] = LXR alpha IP, potency (Inflection Point), compound-induced co-activator recruitment, TR-FRET
[6] = efficacy (% Emax) in relation to reference dual agonist T0901317
[7] = potency (Inflection Point), compound-induced co-activator recruitment, TR-FRET, read-out: LXR alpha IP
[8] = efficacy (% Emax) in relation to reference dual agonist T0901317, read-out: LXR alpha actiivty at max dose

Molecule | EC50 ([1]; LXR beta IP) [nM] | Emax [1] [%] | Emax [2, 4] [%] | EC50 [2, 5] [nM] | other results
COc1cccc([C@@](O)(C(=O)N2CCC(CC(C)CC(F)(F)Oc3ccc(C(=O)N(C)C)c(Cl)c3)CC2)C(F)(F)F)c1 (single isomer, unassigned) [Example 28-1, 2-chloro-4-((R or S)-1,1-difluoro-3-methyl-4-(1-((R or S)-3,3,3-trifluoro-2-hydroxy-2-(3-methoxyphenyl)propanoyl)piperidin-4-yl)butoxy)-N,N-dimethylbenzamide] | 65 | 62 | 0 | – | LXR alpha IP [2, 3]: No IP
CN(C)C(=O)c1ccc(OCCCCC2CCN(C(=O)C(O)(c3cccc(F)c3)C(F)(F)F)CC2)cc1Cl (single isomer, unassigned) [Example 3-4, (R or S)-2-chloro-N,N-dimethyl-4-(4-(1-(3,3,3-trifluoro-2-(3-fluorophenyl)-2-hydroxypropanoyl)piperidin-4-yl)butoxy)benzamide] | 7 | 73 | 41 | 126 | –
CN(C)C(=O)c1ccc(OCCCCC2CCN(S(=O)(=O)c3c(Cl)cccc3Cl)CC2)nc1Cl [Example 7-2, 2-chloro-6-(4-(1-(2,6-dichlorophenylsulfonyl)piperidin-4-yl)butoxy)-N,N-dimethylnicotinamide] | 23 | 122 | 80 | 429 | –
COc1cccc([C@@](O)(C(=O)N2CCC([C@H]3C[C@H]3CCOc3ccc(C(=O)N(C)C)c(Cl)c3)CC2)C(F)(F)F)c1 (single isomer, unassigned) [Example 10-1, 2-chloro-N,N-dimethyl-4-(2-((1S,2R or 1R, 2S)-2-(1-((R or S)-3,3,3-trifluoro-2-hydroxy-2-(3-methoxyphenyl)propanoyl)piperidin-4-yl)cyclopropyl)ethoxy)benzamide] | 5 | 66 | – | – | EC50 ([2]; LXR alpha IP): 117 nM; Emax ([2]; read-out: LXR alpha actiivty at max dose): 14%
CN(C)C(=O)c1ccc(OCCC2CC23CCN(C(=O)C(C)(C)c2ccsc2)CC3)cc1Cl (single isomer, unassigned) [Example 12-7, (R or S)-2-chloro-N,N-dimethyl-4-(2-(6-(2-methyl-2-(thiophen-3-yl)propanoyl)-6-azaspiro[2.5]octan-1-yl)ethoxy)benzamide] | 29 | 64 | 39 | 589 | –
4-(2-((1S,2R or 1R, 2S)- 2-(1-((R or S)-2-amino- 3,3,3-trifluoro-2- phenylpropanoyl) piperidin-4- yl)cyclopropyl)ethoxy)-2- chloro-N- methylbenzamide [Example 10-4] | – | – | – | – | LXR beta actiivty at max dose [1, 6]: 147%; EC50 ([1]; read-out: LXR beta IP): 8 nM; LXR alpha actiivty at max dose [2, 6]: 83%; EC50 [2, 7]: 586 nM
CC(COc1ccc(C(=O)N(C)C)c(Cl)c1)CC(C)C1CCN(C(=O)C(O)(c2ccccc2)C(F)(F)F)CC1 (single isomer, unassigned) [Example 31-1, 2-chloro-N,N-dimethyl-4-(2-methyl-4-(1-((R or S)-3,3,3-trifluoro-2-hydroxy-2-phenylpropanoyl)piperidin-4-yl)pentyloxy)benzamide] | 25 | 56 | 27 | 284 | –
CN(C)C(=O)c1ccc(O[C@H]2C[C@@H](CC3CCN(C(=O)[C@](O)(c4cc(F)cc(Cl)c4)C(F)(F)F)CC3)C2)cc1Cl (single isomer, unassigned) [Example 37-10, 2-chloro-4-((1R,3s)-3-((1-((R or S)-2-(3-chloro-5-fluorophenyl)-3,3,3-trifluoro-2-hydroxypropanoyl)piperidin-4-yl)methyl)cyclobutoxy)-N,N-dimethylbenzamide] | 5 | 140 | 46 | 318 | –
CN(C)C(=O)c1ccc(OCCC2CC3(CCN(C(=O)C(C)(C)c4ccccc4)CC3)C2)cc1Cl [Example 34-2, 2-chloro-N,N-dimethyl-4-(2-(7-(2-methyl-2-phenylpropanoyl)-7-azaspiro[3.5]nonan-2-yl)ethoxy)benzamide] | 26 | 90 | 25 | 268 | –
CN(C)C(=O)c1ccc(OCCCC2CC23CCN(C(=O)C2(c4ccccc4)CCCC2)CC3)cc1Cl (single isomer, unassigned) [Example 14-2, (R or S)-2-chloro-N,N-dimethyl-4-(3-(6-(1-phenylcyclopentanecarbonyl)-6-azaspiro[2.5]octan-1-yl)propoxy)benzamide] | 28 | 86 | 17 | 424 | –
COc1cccc(C(O)(C(=O)N2CCC(C3CC3(C)COc3ccc(C(=O)N(C)C)c(Cl)c3)CC2)C(F)(F)F)c1 (single isomer, unassigned) [Example 16-1, 2-chloro-N,N-dimethyl-4-((1-methyl-2-(1-((R or S)-3,3,3-trifluoro-2-hydroxy-2-(3-methoxyphenyl)propanoyl)piperidin-4-yl)cyclopropyl)methoxy)benzamide] | 66 | 84 | 18 | 955 | –
CC(C)(C(=O)N1CCC2(CC1)CC(CCOc1ccc(C(=O)N3CCCC3)c(Cl)c1)C2)c1ccccc1 [Example 34-3, 1-(2-(2-(3-chloro-4-(pyrrolidine-1-carbonyl)phenoxy)ethyl)-7-azaspiro[3.5]nonan-7-yl)-2-methyl-2-phenylpropan-1-one] | 70 | 65 | 13 | 292 | –
C[C@H](CCCC1CCN(C(=O)[C@](O)(c2ccccc2)C(F)(F)F)CC1)Oc1ccc(C(=O)N(C)C)c(Cl)c1 (single isomer, unassigned) [Example 25-1, 2-chloro-N,N-dimethyl-4-((R or S)-5-(1-((R or S)-3,3,3-trifluoro-2-hydroxy-2-phenylpropanoyl)piperidin-4-yl)pentan-2-yloxy)benzamide] | 101 | 91 | – | – | Emax [2, 8]: 29%; EC50 [2, 7]: 1160 nM
CN(C(=O)c1ccc(OCCCCC2CCN(C(=O)[C@](O)(c3ccccc3)C(F)(F)F)CC2)cc1Cl)[C@H]1CCOC1 (single isomer, unassigned) [Example 8-16, 2-chloro-N-methyl-N-((S or R)-tetrahydro-furan-3-yl)-4-(4-(1-((R or S)-3,3,3-trifluoro-2-hydroxy-2-phenylpropanoyl)piperidin-4-yl)butoxy) benzamide] | 10 | 71 | 32 | 116 | –
CN(C)C(=O)c1ccc(OCCC2CC23CCN(C(=O)C2(c4ccccc4C(F)(F)F)CCC2)CC3)cc1Cl (single isomer, unassigned) [Example 12-6, (R or S)-2-chloro-N,N-dimethyl-4-(2-(6-(1-(2-(trifluoromethyl)phenyl)cyclobutanecarbonyl)-6-azaspiro[2.5]octan-1-yl)ethoxy)benzamide] | 4 | 68 | 48 | 80 | –
COc1cccc(C(O)(C(=O)N2CCC3(CCC3CCCOc3ccc(C(=O)N(C)C)c(Cl)c3)CC2)C(F)(F)F)c1 (single isomer, unassigned) [Example 36-1, 2-chloro-N,N-dimethyl-4-(3-(7-((R or S)-3,3,3-trifluoro-2-hydroxy-2-(3-methoxyphenyl)propanoyl)-7-azaspiro[3.5]nonan-1-yl)propoxy)benzamide] | 66 | 52 | – | – | Emax [2, 8]: 3%; LXR alpha IP [2, 3]: No IP
COc1cccc([C@](O)(C(=O)N2CCC(C[C@H]3C[C@@H](Oc4ccc(C(=O)N(C)C)c(Cl)c4)C3)CC2)C(F)F)c1 (single isomer, unassigned) [Example 37-7, 2-chloro-4-((1R,3s)-3-((1-((R or S)-3,3-difluoro-2-hydroxy-2-(3-methoxyphenyl)propanoyl)piperidin-4-yl)methyl)cyclobutoxy)-N,N-dimethylbenzamide] | 32 | 95 | 4 | – | LXR alpha IP [2, 3]: No IP
COc1ccccc1[C@@](O)(C(=O)N1CCC2(CC1)C[C@H]2CCCOc1ccc(C(=O)N(C)C)c(Cl)c1)C(F)(F)F (single isomer, unassigned) [Example 14-3, 2-chloro-N,N-dimethyl-4-(3-((R or S)-6-((R or S)-3,3,3-trifluoro-2-hydroxy-2-(2-methoxyphenyl)propanoyl)-6-azaspiro[2.5]octan-1-yl)propoxy)benzamide] | 41 | 81 | 6 | – | LXR alpha IP [2, 3]: No IP
